The values that follow come from patent US10562902B2, “IRAK4 inhibitor and use thereof” (BEIJING HANMI PHARMACEUTICAL CO., LTD., priority 2015, dated 2020).

Where only a bound is given, the exact number is not on record here.

In general, IC50 refers to the concentration that gives 50% inhibition. Read a low IC50 as greater potency.

The target in the assay is IRAK4 kinase (Homo sapiens (Human), UniProt Q9NWZ3). Nature of the assay: IRAK4 kinase activity inhibition assay. The note with it: ADP-Glo kinase assay, 10 μM ATP, MBP substrate. Format: biochemical. The procedure:
IRAK4 kinase (purchased from Life Technologies, Cat. No.: PR5612U) was diluted to 2 folds of the final concentration (the final concentration is […]) with reaction buffer (40 mM Tris-HC1, pH 7.5; 20 mM MgCl2; 0.1 mg/mL BSA; 1 mM DTT), and added to a 384-well plate at 5 μL/well. The test drugs were 10-fold serial diluted from 10 μM to set six concentration points and added to the test wells of the 384-well plate at 2.5 μL/well. After incubation for 10 min at 25° C., 10 μM of ATP and 0.1 μg/μL of an enzyme reaction substrate, myelin basic protein MBP (purchased from Signal Chem, Cat. No.: M42-51N) were added at 2.5 μL/well, and reacted at 25° C. for 60 minutes. After the reaction was completed, the kinase activity assay was performed using the ADP-Glo™ kinase assay kit (purchased from Promega, Cat. No.: V9102) according to the manufacture's instruction, i.e., 10 μL of ADP-Glo reaction reagent was first added and reacted at 25° C. for 40 minutes, 10 μL of the reaction mixture was taken and mixed with 10 μL of ADP-Glo detection reagent, and reacted at 25° C. for 30 minutes. The kinase activity was then detected, and the IC50 values of the test drugs were calculated.
A general note: ADP-Glo first removes unused ATP, then detects ADP through luciferase.

IRAK4 kinase, sequence (Q9NWZ3 whole entry): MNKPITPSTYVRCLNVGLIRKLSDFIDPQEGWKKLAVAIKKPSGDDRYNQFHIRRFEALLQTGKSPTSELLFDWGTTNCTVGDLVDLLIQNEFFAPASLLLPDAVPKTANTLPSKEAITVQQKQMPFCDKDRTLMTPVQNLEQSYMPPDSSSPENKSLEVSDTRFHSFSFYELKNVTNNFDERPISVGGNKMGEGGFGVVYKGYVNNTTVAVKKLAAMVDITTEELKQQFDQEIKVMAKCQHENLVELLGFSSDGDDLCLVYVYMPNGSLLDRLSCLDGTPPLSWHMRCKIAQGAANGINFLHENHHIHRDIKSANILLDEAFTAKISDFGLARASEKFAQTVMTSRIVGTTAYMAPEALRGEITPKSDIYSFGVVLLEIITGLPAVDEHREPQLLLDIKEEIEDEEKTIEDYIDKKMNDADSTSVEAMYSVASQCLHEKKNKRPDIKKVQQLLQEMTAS

`Cc1cc(Nc2nc(N[C@H]3CC[C@H](O)CC3)c3c(ccn3-c3cnn(C)c3)n2)sn1` [Example 1, trans-4-[2-(3-methylisothiazol-5-ylamino)-5-(1-methyl-1H-pyrazol-4-yl)-5H-pyrrolo[3,2-d]pyrimidin-4-ylamino]cyclohexanol] returned an IC50 not above 0.1 µM. Next, `Cc1cc(Nc2nc(NC(C)C)c3c(ccn3-c3cnn(C)c3)n2)sn1` [Example 2]: not above 0.1 µM; `Cc1cc(Nc2nc(NCCO)c3c(ccn3-c3cnn(C)c3)n2)sn1` [Example 3]: 0.1 to 1 µM; `Cc1cc(Nc2nc(NCCCO)c3c(ccn3-c3cnn(C)c3)n2)sn1` [Example 4]: not above 0.1 µM. Next, `Cc1cc(Nc2nc(NCCCCO)c3c(ccn3-c3cnn(C)c3)n2)sn1` [Example 5]: not above 0.1 µM; `CNC(=O)CCNc1nc(Nc2cc(C)ns2)nc2ccn(-c3cnn(C)c3)c12` [Example 6]: 0.1 to 1 µM. Next, `CNC(=O)CCCNc1nc(Nc2cc(C)ns2)nc2ccn(-c3cnn(C)c3)c12` [Example 7]: 0.1 to 1 µM; `CC(=O)NCCNc1nc(Nc2cc(C)ns2)nc2ccn(-c3cnn(C)c3)c12` [Example 8]: 0.1 to 1 µM; `CC(=O)NCCCNc1nc(Nc2cc(C)ns2)nc2ccn(-c3cnn(C)c3)c12` [Example 9]: 0.1 to 1 µM. As for `Cc1cc(Nc2nc(NCCN3CCOCC3)c3c(ccn3-c3cnn(C)c3)n2)sn1` [Example 10], the IC50 is 0.1 to 1 µM. Next, `Cc1cc(Nc2nc(NCCCN3CCOCC3)c3c(ccn3-c3cnn(C)c3)n2)sn1` [Example 11]: 0.1 to 1 µM; `Cc1cc(Nc2nc(NC3CCC3)c3c(ccn3-c3cnn(C)c3)n2)sn1` [Example 12]: 0.1 to 1 µM. Next, `Cc1cc(Nc2nc(NC3CC(O)C3)c3c(ccn3-c3cnn(C)c3)n2)sn1` (stereo not drawn) [Example 13]: not above 0.1 µM; `Cc1cc(Nc2nc(N[C@H]3C[C@@](C)(O)C3)c3c(ccn3-c3cnn(C)c3)n2)sn1` [Example 14]: not above 0.1 µM. Next, `Cc1cc(Nc2nc(N[C@H]3C[C@@H](N4CCCCC4)C3)c3c(ccn3-c3cnn(C)c3)n2)sn1` [Example 15]: 0.1 to 1 µM.

With `Cc1cc(Nc2nc(N[C@H]3C[C@H](N4CCCCC4)C3)c3c(ccn3-c3cnn(C)c3)n2)sn1` [Example 16], the IC50 lay within 0.1 to 1 µM.

For `Cc1cc(Nc2nc(NC3CCCC3)c3c(ccn3-c3cnn(C)c3)n2)sn1` [Example 17], the IC50 lay in the range of 0.1 to 1 µM. Next, `Cc1cc(Nc2nc(N[C@H]3CC[C@@H](O)C3)c3c(ccn3-c3cnn(C)c3)n2)sn1` [Example 18]: not above 0.1 µM.

With `Cc1cc(Nc2nc(N[C@@H]3C[C@H](CO)[C@@H](O)[C@H]3O)c3c(ccn3-c3cnn(C)c3)n2)sn1` [Example 19], the IC50 is not above 0.1 µM. Under `Cc1cc(Nc2nc(N[C@@H]3CCOC3)c3c(ccn3-c3cnn(C)c3)n2)sn1` [Example 20] stands 0.1 to 1 µM; under `Cc1cc(Nc2nc(N[C@H]3CCOC3)c3c(ccn3-c3cnn(C)c3)n2)sn1` [Example 21], 0.1 to 1 µM. Molecule `Cc1cc(Nc2nc(NC3CCCCC3)c3c(ccn3-c3cnn(C)c3)n2)sn1` [Example 22] gave an IC50 of 0.1 to 1 µM. For `Cc1cc(Nc2nc(NC3CCC(=O)CC3)c3c(ccn3-c3cnn(C)c3)n2)sn1` [Example 23], the IC50 was 0.1 to 1 µM. Next, `Cc1cc(Nc2nc(N[C@H]3CC[C@](C)(O)CC3)c3c(ccn3-c3cnn(C)c3)n2)sn1` [Example 24]: 0.1 to 1 µM; `CO[C@H]1CC[C@@H](Nc2nc(Nc3cc(C)ns3)nc3ccn(-c4cnn(C)c4)c23)CC1` [Example 25]: 0.1 to 1 µM; `CO[C@H]1CC[C@H](Nc2nc(Nc3cc(C)ns3)nc3ccn(-c4cnn(C)c4)c23)CC1` [Example 26]: not above 0.1 µM. With `CC(=O)N[C@H]1CC[C@H](Nc2nc(Nc3cc(C)ns3)nc3ccn(-c4cnn(C)c4)c23)CC1` [Example 27], the IC50 is 0.1 to 1 µM. With `Cc1cc(Nc2nc(N[C@H]3CC[C@H](N4CCCCC4)CC3)c3c(ccn3-c3cnn(C)c3)n2)sn1` [Example 28], the IC50 was 0.1 to 1 µM. Molecule `Cc1cc(Nc2nc(NC3CCOCC3)c3c(ccn3-c3cnn(C)c3)n2)sn1` [Example 29] yielded an IC50 not above 0.1 µM. Molecule `Cc1cc(Nc2nc(NC3CCN(C)CC3)c3c(ccn3-c3cnn(C)c3)n2)sn1` [Example 30] registered an IC50 of 0.1 to 1 µM.

For `CNC(=O)c1ccc(Nc2nc(Nc3cc(C)ns3)nc3ccn(-c4cnn(C)c4)c23)cc1` [Example 31], the IC50 was 0.1 to 1 µM. Molecule `Cc1cc(Nc2nc(NC(C)C)c3c(ccn3-c3cnn(C4CCOCC4)c3)n2)sn1` [Example 32] had an IC50 of 0.1 to 1 µM.

With `Cc1cc(Nc2nc(N[C@H]3CC[C@H](O)CC3)c3c(ccn3-c3ccccc3)n2)sn1` [Example 33], the IC50 was in the range of 0.1 to 1 µM.

`Cc1cc(Nc2nc(N[C@H]3CC[C@H](O)CC3)c3c(ccn3-c3ccc(F)cc3)n2)sn1` [Example 34]: the IC50 was in the range of 0.1 to 1 µM.

`Cc1cc(Nc2nc(NC(C)C)c3c(ccn3-c3cccc(C(=O)O)c3)n2)sn1` [Example 35]: the IC50 lay within 1 to 10 µM. Under `Cc1cc(Nc2nc(NC(C)C)c3c(ccn3-c3cccc(S(C)(=O)=O)c3)n2)sn1` [Example 36] stands 1 to 10 µM. As for `Cc1cc(Nc2nc(NC(C)C)c3c(ccn3-c3cccnc3)n2)sn1` [Example 37], the IC50 was 0.1 to 1 µM. Regarding `Cc1cc(Nc2nc(N[C@H]3CC[C@H](O)CC3)c3c(ccn3-c3cccnc3)n2)sn1` [Example 38], the IC50 was not above 0.1 µM.

Regarding `Cc1cc(Nc2nc(NC(C)C)c3c(ccn3-c3ccc(N)nc3)n2)sn1` [Example 39], the IC50 lay within 1 to 10 µM. `Cc1cc(Nc2nc(NC3CCOCC3)c3c(ccn3-c3ccncc3)n2)sn1` [Example 40] gave an IC50 of 0.1 to 1 µM. Under `Cc1cc(Nc2nc(NC(C)C)c3c(ccn3-c3ccnc(O)c3)n2)sn1` [Example 41] stands 0.1 to 1 µM; under `COc1cc(-n2ccc3nc(Nc4cc(C)ns4)nc(NC(C)C)c32)ccn1` [Example 42], 0.1 to 1 µM; under `Cc1cc(Nc2nc(NC(C)C)c3c(ccn3-c3ccc4c(c3)OCO4)n2)sn1` [Example 43], 0.1 to 1 µM.

For the molecule `Cc1cc(Nc2nc(NC(C)C)c3c(ccn3-c3cccc4c3cnn4C)n2)sn1` [Example 44], the IC50 lay in the range of 1 to 10 µM. As to `CC(C)Nc1nc(Nc2cnn(C3CCCCC3)c2)nc2ccn(-c3cnn(C)c3)c12` [Example 45, N^2-(1-cyclohexyl-1H-pyrazol-4-yl)-N^4-isopropyl-5-(1-methyl-1H-pyrazol-4-yl)-5H-pyrrolo[3,2-d]pyrimidin-2,4-diamine], the IC50 lay in the range of 0.1 to 1 µM. Next, `Cn1cc(Nc2nc(N[C@H]3CC[C@H](O)CC3)c3c(ccn3-c3cnn(C)c3)n2)cn1` [Example 46]: 0.1 to 1 µM. In the case of `CC(C)Nc1nc(Nc2cnn(C3CCOCC3)c2)nc2ccn(-c3cnn(C)c3)c12` [Example 47], the IC50 lay within 0.1 to 1 µM. Next, `CCNC(=O)c1csc(Nc2nc(NC3CCOCC3)c3c(ccn3-c3cnn(C)c3)n2)c1` [Example 49]: not above 0.1 µM; `CN(C)C(=O)c1csc(Nc2nc(NC3CCOCC3)c3c(ccn3-c3cnn(C)c3)n2)c1` [Example 50]: 0.1 to 1 µM; `CNC(=O)c1cc(Nc2nc(NC3CCOCC3)c3c(ccn3-c3cnn(C)c3)n2)cs1` [Example 51]: not above 0.1 µM. Under `CN(C)C(=O)c1cc(Nc2nc(NC3CCOCC3)c3c(ccn3-c3cnn(C)c3)n2)cs1` [Example 52] stands 0.1 to 1 µM.
